Measurements as given in US20240277795A1, “INHIBITORS OF CYSTEINE PROTEASES AND METHODS OF USE THEREOF” (Pardes Biosciences, Inc., priority 2021, published 2024).
Read-outs that look alike come from different tables or passages of the source.

Tests used:
HCoV 229E = HCoV 229E cytopathic effect (CPE) assay; format: cell-based; conditions: read-out: 229E CPE EC50
Experimental: (§1) Compounds were assayed using standard methods against multiple coronaviral strains, including HCoV 229E and OC43 strains. The antiviral activity of compounds was calculated based on the protection of the virus-induced CPE at each concentration normalized by the virus control.
(§2) Reagents and instruments used in this assay include luminescent cell viability assay kit CellTiter Glo (Promega) and Microplate Reader Synergy2 (BioTek).
Cytopathic effect (CPE) was measured by CellTiter Glo following the manufacturer's manual. The antiviral activity of compounds was calculated based on the protection of the virus-induced CPE at each concentration normalized by the virus control.
(§3) The cytotoxicity of compounds was assessed under the same conditions, but without virus infection, in parallel. Cell viability was measured with CellTiter Glo. The antiviral activity and cytotoxicity of compounds were expressed as % Inhibition and % Viability, respectively, and calculated with formulas.

OC43 Mpro = OC43 Mpro (Human coronavirus OC43, UniProt P0C6X6); assay: OC43 Mpro enzymatic assay; format: biochemical, HCoV OC43
Experimental: (§4) Compounds were assayed using standard methods to assess compound activity and IC50. As an exemplary for assessment of the SARS-COV2 Mpro, the C-His6-tagged Mpro (NC_045512) was cloned, expressed in E. coli and purified. The assay buffer contained 20 mM of Tris-HCl (pH 7.3), 100 mM of NaCl, 1 mM of EDTA, 5 mM of TCEP and 0.1% BSA. The final concentrations of the Mpro protein and substrate were 25 nM and 25 μM, respectively, in the Mpro enzymatic assay. The Km of the Mpro substrate for the protease was 13.5 μM.
(§5) The compounds were added to an assay plate. For 100% inhibition control (HPE, hundred percent effect), 1 μM GC376 was added. For no inhibition control (ZPE, zero percent effect), no compound was added.
(§6) IC50 values of compounds were calculated with the GraphPad Prism software using the nonlinear regression model of log(inhibitor) vs. response—Variable slope (four parameters). The inhibition activity was calculated using the formula below, IC50 values is calculated using the Inhibition % data.
(§7) [formula] • #HEP: Hundred percent effect controls. Containing substrate+enzyme+1 μM GC376. • ZPE: Zero percent effective controls. Containing enzyme+substrate, no compound. • Sample: Compound activity testing wells. Containing compound+enzyme+substrate. • BG: Compound background control wells. Containing compound+substrate, no enzyme.

SARS-COV2 Mpro = SARS-COV2 Mpro (Severe acute respiratory syndrome coronavirus 2, UniProt P0DTD1); assay: COVID-19 (nCoV-2019, SARS-CoV2) Mpro enzymatic assay; format: biochemical
Experimental: as §4, with “assay.” for “assay. The Km of the Mpro substrate for the protease was 13.5 μM.”
The compounds were added to an assay plate. For 100% inhibition control (HPE, hundred percent effect), 1 μM GC376 was added.
as §6
[formula] • #HEP: Hundred percent effect controls. […] Containing enzyme+substrate, no compound. • Sample: Compound activity testing wells. Containing compound+enzyme+substrate. • BG: Compound background control wells. Containing compound+substrate, no enzyme.

HCov OC43 = assay: HCoV OC43 cytopathic effect (CPE) assay; format: cell-based; conditions: Betacoronavirus 1, OC43; Table 4; CellTiter Glo
Experimental: as §1, §2
Reference compound used was remdesivir; detection reagent: CellTiter Glo.) The CPE were measured by CellTiter Glo following the manufacturer's manual. The antiviral activity of compounds was calculated based on the protection of the virus-induced CPE at each concentration normalized by the virus control.
as §3

229E Mpro = 229E Mpro (Human coronavirus 229E, UniProt P0C6X1); assay: 229E Mpro enzymatic assay; format: biochemical, HCoV 229E
Experimental: as §4, §5, §6, §7

[1] = Table 3, read-out: COVID-19 Mpro IC50
[2] = Table 5, read-out: COVID-19 Mpro IC50

OC43 Mpro, sequence (P0C6X6 3247-3549): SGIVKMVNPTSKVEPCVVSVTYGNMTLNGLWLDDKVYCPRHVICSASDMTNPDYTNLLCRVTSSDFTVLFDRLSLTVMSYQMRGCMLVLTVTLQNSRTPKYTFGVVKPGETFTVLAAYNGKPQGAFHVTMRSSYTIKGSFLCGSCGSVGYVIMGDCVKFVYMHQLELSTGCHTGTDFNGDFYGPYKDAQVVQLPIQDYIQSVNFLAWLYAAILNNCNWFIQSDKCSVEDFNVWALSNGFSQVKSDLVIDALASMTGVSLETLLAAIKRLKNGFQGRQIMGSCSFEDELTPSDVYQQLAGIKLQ
229E Mpro, sequence (P0C6X1 2966-3267): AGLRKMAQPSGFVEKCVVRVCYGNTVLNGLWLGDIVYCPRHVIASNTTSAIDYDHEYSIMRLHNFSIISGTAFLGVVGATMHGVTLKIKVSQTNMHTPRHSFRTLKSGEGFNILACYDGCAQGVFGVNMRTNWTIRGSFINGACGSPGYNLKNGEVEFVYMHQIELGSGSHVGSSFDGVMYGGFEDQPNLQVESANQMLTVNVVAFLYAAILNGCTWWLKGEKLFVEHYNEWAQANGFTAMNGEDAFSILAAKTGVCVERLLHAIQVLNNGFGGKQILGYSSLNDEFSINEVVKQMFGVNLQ

Compound	EC50 (HCoV 229E; Table 4, CellTiter Glo)	IC50 (OC43 Mpro; Table 3)	IC50 (SARS-COV2 Mpro)	EC50 (HCov OC43)	IC50 (229E Mpro; Table 3)	EC50 (HCoV 229E)	IC50 (SARS-COV2 Mpro; [1])	IC50 (OC43 Mpro; Table 5)	IC50 (SARS-COV2 Mpro; [2])	IC50 (229E Mpro; Table 5)
CC(C)(C)[C@H](NC(=O)c1cnccn1)C(=O)N1C[C@H]2[C@@H]([C@H]1C(=O)N[C@H](C#N)C[C@@H]1CCNC1=O)C2(C)C (single isomer, unassigned) [101 Isomer 1]	2000 to 10000 nM	< 2000 nM	< 2000 nM	< 2000 nM	< 2000 nM					
N#C[C@H](C[C@@H]1CC2(CC2)NC1=O)NC(=O)[C@H](CC1CC1)NC(=O)[C@H](Cc1cccc2ccccc12)NC(=O)OCc1ccccc1 [Compound 110, benzyl((S)-1-(((S)-1-(((S)-1-cyano-2-((R)-5-oxo-4-azaspiro[2.4]heptan-6-yl)ethyl)amino)-3-cyclopropyl-1-oxopropan-2-yl)amino)-3-(naphthalen-1-yl)-1-oxopropan-2-yl)carbamate]	< 2000 nM	< 2000 nM	< 2000 nM		< 2000 nM					
CC(C)(C)[C@H](NC(=O)c1cnccn1)C(=O)N1C[C@H]2[C@@H]([C@H]1C(=O)N[C@H](C#N)C[C@@H]1CC3(CC3)NC1=O)C2(C)C [Compound 129, (1R,2S,5S)—N-[(1S)-1-cyano-2-[(6R)-5-oxo-4-azaspiro[2.4]heptan-6-yl]ethyl]-3-[(2S)-3,3-dimethyl-2-(pyrazine-2-carbonylamino)butanoyl]-6,6-dimethyl-3-azabicyclo[3.1.0]hexane-2-carboxamide]	< 2000 nM	< 2000 nM	< 2000 nM		< 2000 nM					
CC(C)(C)[C@H](NC(=O)OCC(F)(F)F)C(=O)N1C[C@H]2[C@@H]([C@H]1C(=O)N[C@H](C#N)C[C@@H]1CC3(CC3)NC1=O)C2(C)C [Compound 132, 2,2,2-trifluoroethyl ((S)-1-((1R,2S,5S)-2-(((S)-1-cyano-2-((R)-5-oxo-4-azaspiro[2.4]heptan-6-yl)ethyl)carbamoyl)-6,6-dimethyl-3-azabicyclo[3.1.0]hexan-3-yl)-3,3-dimethyl-1-oxobutan-2-yl)carbamate]		< 2000 nM			< 2000 nM	< 2000 nM	< 2000 nM			
COCCOC(=O)N[C@H](C(=O)N1C[C@H]2[C@@H]([C@H]1C(=O)N[C@H](C#N)C[C@@H]1CC3(CC3)NC1=O)C2(C)C)C(C)(C)C [Compound 133, 2-methoxyethyl ((S)-1-((1R,2S,5S)-2-(((S)-1-cyano-2-((R)-5-oxo-4-azaspiro[2.4]heptan-6-yl)ethyl)carbamoyl)-6,6-dimethyl-3-azabicyclo[3.1.0]hexan-3-yl)-3,3-dimethyl-1-oxobutan-2-yl)carbamate]	< 2000 nM	< 2000 nM	< 2000 nM		< 2000 nM					
CC(C)(C)[C@H](NC(=O)OC1CCOC1)C(=O)N1C[C@H]2[C@@H]([C@H]1C(=O)N[C@H](C#N)C[C@@H]1CC3(CC3)NC1=O)C2(C)C (stereo partly drawn) [Compound 134, tetrahydrofuran-3-yl N-[(1S)-1-[(1R,2S,5S)-2-[[(1S)-1-cyano-2-[(6R)-5-oxo-4-azaspiro[2.4]heptan-6-yl]ethyl]carbamoyl]-6,6-dimethyl-3-azabicyclo[3.1.0]hexane-3-carbonyl]-2,2-dimethyl-propyl]carbamate]	< 2000 nM	< 2000 nM	< 2000 nM		< 2000 nM					
CC(C)(C)C(=O)N[C@H](C(=O)N1C[C@H]2[C@@H]([C@H]1C(=O)N[C@H](C#N)C[C@@H]1CC3(CC3)NC1=O)C2(C)C)C(C)(C)C [Compound 135, (1R,2S,5S)—N-[(1S)-1-cyano-2-[(6R)-5-oxo-4-azaspiro[2.4]heptan-6-yl]ethyl]-3-[(2S)-2-(2,2-dimethylpropanoylamino)-3,3-dimethyl-butanoyl]-6,6-dimethyl-3-azabicyclo[3.1.0]hexane-2-carboxamide]	< 2000 nM	< 2000 nM	< 2000 nM		< 2000 nM					
CC(C)(C)[C@H](NC(=O)C1(C(F)(F)F)CC1)C(=O)N1C[C@H]2[C@@H]([C@H]1C(=O)N[C@H](C#N)C[C@@H]1CC3(CC3)NC1=O)C2(C)C [Compound 136, (1R,2S,5S)—N-[(1S)-1-cyano-2-[(6R)-5-oxo-4-azaspiro[2.4]heptan-6-yl]ethyl]-3-[(2S)-3,3-dimethyl-2-[[1-(trifluoromethyl)cyclopropanecarbonyl]amino]butanoyl]-6,6-dimethyl-3-azabicyclo[3.1.0]hexane-2-carboxamide]	< 2000 nM	< 2000 nM	< 2000 nM		< 2000 nM					
C[C@@H](OC(C)(C)C(F)(F)F)[C@H](NC(=O)C(F)(F)F)C(=O)N1C[C@H]2[C@@H]([C@H]1C(=O)N[C@H](C#N)C[C@@H]1CC3(CC3)NC1=O)C2(C)C [Compound 358, (1R,2S,5S)—N-[(1S)-1-cyan-2-[(6R)-5-oxo-4-azaspiro[2.4]heptan-6-yl]ethyl]-6,6-dimethyl-3-[(2S,3R)-2-[(2,2,2-trifluoroacetyl)amino]-3-(2,2,2-trifluoro-1,1-dimethyl-ethoxy)butanoyl]-3-azabicyclo[3.1.0]hexane-2-carboxamide]								< 2000 nM	< 2000 nM	< 2000 nM
CC1(C)CCC(C[C@@H](C#N)NC(=O)[C@@H]2[C@@H]3[C@H](CN2C(=O)[C@@H](NC(=O)C(F)(F)F)C(C)(C)C)C3(C)C)C(=O)N1 (stereo partly drawn) [Compound 361, (1R,5S)—N-[(1S)-1-cyano-2-(6,6-dimethyl-2-oxo-3-piperidyl)ethyl]-3-[(2S)-3,3-dimethyl-2-[(2,2,2-trifluoroacetyl)amino]butanoyl]-6,6-dimethyl-3-azabicyclo[3.1.0]hexane-2-carboxamide]		< 2000 nM			10000 to 30000 nM		< 2000 nM			
CC(C)(C)[C@H](NC(=O)C(F)(F)F)C(=O)N1C[C@H]2[C@@H]([C@H]1C(=O)N[C@H](C#N)C[C@@H]1CC3(CCC3)NC1=O)C2(C)C [Compound 362, (1R,2S,5S)—N-[(1S)-1-cyano-2-[(7R)-6-oxo-5-azaspiro[3.4]octan-7-yl]ethyl]-3-[(2S)-3,3-dimethyl-2-[(2,2,2-trifluoroacetyl)amino]butanoyl]-6,6-dimethyl-3-azabicyclo[3.1.0]hexane-2-carboxamide]		< 2000 nM			< 2000 nM		< 2000 nM			
CC(C)(C)[C@H](NC(=O)C(F)(F)F)C(=O)N1C[C@H]2[C@@H]([C@H]1C(=O)N[C@H](C#N)C[C@@]1(C)CC3(CC3)NC1=O)C2(C)C [Compound 375]		< 2000 nM			< 2000 nM		< 2000 nM			
CO[C@H](C)[C@H](NC(=O)C(F)(F)F)C(=O)N1C[C@H]2[C@@H]([C@H]1C(=O)N[C@H](C#N)C[C@@H]1CC3(CCC3)NC1=O)C2(C)C [Compound 425, (1R,2S,5S)—N-[(1S)-1-cyano-2-[(7R)-6-oxo-5-azaspiro[3.4]octan-7-yl]ethyl]-3-[(2S,3R)-3-methoxy-2-[(2,2,2-trifluoroacetyl)amino]butanoyl]-6,6-dimethyl-3-azabicyclo[3.1.0]hexane-2-carboxamide]								< 2000 nM	< 2000 nM	< 2000 nM
C[C@@H](OC(C)(C)C)[C@H](NC(=O)C(F)(F)F)C(=O)N1C[C@H]2[C@@H]([C@H]1C(=O)N[C@H](C#N)C[C@@H]1CCCNC1=O)C2(C)C [Compound 431, (1R, 2S, 5S)-3-((2S, 3R)-3-(tert-butoxy)-2-(2,2,2-trifluoroacetamido)butanoyl)-N—((S)-1-cyano-2-((S)-2-oxopiperidin-3-yl)ethyl)-6,6-dimethyl-3-azabicyclo[3.1.0]hexane-2-carboxamide]								< 2000 nM	< 2000 nM	< 2000 nM
